Experimental data as given in patent US11253501B2, “Secnidazole formulations and use in treating bacterial vaginosis” (LUPIN INC., priority 2015, dated 2022).

Legend:
[1] = Plasma pharmacokinetics after a single oral dose in fasted healthy female subjects; format: in vivo, human; conditions: 2 gram secnidazole microgranule formulation (70% drug in core)
[2] = Urine pharmacokinetics after a single oral dose in fasted healthy female subjects; format: in vivo, human; conditions: 2 gram secnidazole microgranule formulation (70% drug in core)

λz, Mean (SD) [1]: 0.0422 (0.007544) 1/h
λz, Median [1]: 0.04047 h⁻¹
% FE, Geometric Mean (SD) [2]: 14.991 (3.0081) %
% FE, Mean (SD) [2]: 15.300 (3.5549) %
% FE, Median [2]: 14.943%
Ae0-168, Geometric Mean (SD) [2]: 0.300 (0.0602) g
Ae0-168, Mean (SD) [2]: 0.306 (0.0711) g
Ae0-168, Median [2]: 0.299 g
Structure (SMILES): Cc1ncc([N+](=O)[O-])n1CC(C)O (centres unmarked) [Secnidazole, 1-(2-hydroxypropyl)-2-methyl-5-nitromidazole]
